Results on five compounds are retold here after patent US20250368649A1, “TETRAHYDROPYRIDOPYRIMIDINE PAN-KRAS INHIBITORS” (Mirati Therapeutics, Inc., priority 2022, published 2025).

Assay [1] deals with KRas WT (Homo sapiens, UniProt P01116). Kind of assay: KRas binding assay (TR-FRET displacement), KRas WT. The settings on record: single point, 10 nM compound.
For assay [2], the target named is KRas G12A (Homo sapiens, UniProt P01116, G12A). The assay is classed as binding. The settings on record: single point, 10 nM compound, read-out: Binding to KRas (% inhibition at 10 nM) G12A.
Assay [3] deals with KRas G12C (Homo sapiens, UniProt P01116, G12C). The assay is classed as binding. Conditions: single point, 10 nM compound, read-out: Binding to KRas (% inhibition at 10 nM) G12C.
The target in assay [4] is KRas G12S (Homo sapiens, UniProt P01116, G12S). The format is binding. Conditions: single point, 10 nM compound, read-out: Binding to KRas (% inhibition at 10 nM) G12S.
For assay [5], the target named is KRas G13D (Homo sapiens, UniProt P01116, G13D). The format is binding. The settings on record: single point, 10 nM compound, read-out: Binding to KRas (% inhibition at 10 nM) G13D.
Assay [6] concerns the target KRas Q61H (Homo sapiens, UniProt P01116, Q61H). Description: KRas binding assay (TR-FRET displacement), KRas Q61H. The settings on record: single point, 10 nM compound.
For assay [7], the system named is MKN1 cells. Kind of assay: Inhibition of KRas-mediated phosphorylation of ERK (Cisbio HTRF pERK), MKN1 cells. The settings on record: Homo sapiens, MKN-1, 3 hour compound incubation, Cisbio pERK HTRF. The assay is classed as cell-based. The procedure, abridged: (§1)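 Phospho-ERK signal measured by HTRF after cells had been plated at 6,000/well in RPMI supplemented with 10% FBS on day 1.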

Assay [8] relates to PSN1 cells. Kind of assay: Inhibition of KRas-mediated phosphorylation of ERK (Cisbio HTRF pERK), PSN1 cells. The format is cell-based. The settings on record: Homo sapiens, PSN1, 3 h, 3 hour compound incubation, Cisbio pERK HTRF. In a few lines: as §1
In assay [9] the test system is ASPC1 cells. Description: Inhibition of KRas-mediated phosphorylation of ERK (Cisbio HTRF pERK), ASPC1 cells. Conditions: Homo sapiens, AsPC-1 cells; for IC50: ASPC1, 3 h, 3 hr compound incubation, Cisbio pERK HTRF; for inhibition at 0.1 µM: ASPC1, single point at 100 nM, 3 hrs compound incubation. The assay is classed as cell-based.
The test system of assay [10] is H727 cells. Kind of assay: Inhibition of KRas-mediated phosphorylation of ERK (Cisbio HTRF pERK), H727 cells. The format is cell-based. Conditions: Homo sapiens; for IC50: NCI-H727, 3 h, 3 hr compound incubation, Cisbio pERK HTRF; for inhibition at 0.1 µM: NCI-H727, single point at 100 nM, 3 hrs compound incubation.
Assay [11] has as its system A549 cells. Kind of assay: Inhibition of KRas-mediated phosphorylation of ERK (Cisbio HTRF pERK), A549 cells. Conditions: Homo sapiens; for IC50: A549, 3 h, 3 hr compound incubation, Cisbio pERK HTRF; for inhibition at 0.1 µM: single point at 100 nM, 3 hrs compound incubation. The assay is classed as cell-based.
Assay [12] deals with H460 cells. Description: Inhibition of KRas-mediated phosphorylation of ERK (Cisbio HTRF pERK), H460 cells. The format is cell-based. Conditions: Homo sapiens; for IC50: NCI-H460, 3 h, 3 hr compound incubation, Cisbio pERK HTRF; for inhibition at 0.1 µM: NCI-H460, single point at 100 nM, 3 hrs compound incubation.
Assay [13] concerns HCT116 cells. Kind of assay: Inhibition of KRas-mediated phosphorylation of ERK (Cisbio HTRF pERK), HCT116 cells. The format is cell-based. The settings on record: Homo sapiens; for IC50: HCT-116, 3 h, 3 hr compound incubation, Cisbio pERK HTRF; for inhibition at 0.1 µM: HCT-116, single point at 100 nM, 3 hrs compound incubation.
Assay [14] relates to H358 cells. Description: Inhibition of KRas-mediated phosphorylation of ERK (Cisbio HTRF pERK), H358 cells. The assay is classed as cell-based. The settings on record: Homo sapiens; for IC50: NCI-H358, 3 h, 3 hr compound incubation, Cisbio pERK HTRF; for inhibition at 0.1 µM: NCI-H358, single point at 100 nM, 3 hrs compound incubation.
Assay [15] has as its target KRas G12D (Homo sapiens, UniProt P01116, G12D). Kind of assay: biochemical. Conditions: Binding to KRas (IC50 nM) G12D, TR-FRET displacement, KRas G12D.
Assay [16] deals with KRas G12R (Homo sapiens, UniProt P01116, G12R). Description: biochemical. Conditions: Binding to KRas (IC50 nM) G12R, TR-FRET displacement, KRas G12R.
For assay [17], the target named is KRas G12V (Homo sapiens, UniProt P01116, G12V). Description: biochemical. Conditions: Binding to KRas (IC50 nM) G12V, TR-FRET displacement, KRas G12V.
Chain of KRas G12V (P01116 1-169 isoform P01116-2 G12V): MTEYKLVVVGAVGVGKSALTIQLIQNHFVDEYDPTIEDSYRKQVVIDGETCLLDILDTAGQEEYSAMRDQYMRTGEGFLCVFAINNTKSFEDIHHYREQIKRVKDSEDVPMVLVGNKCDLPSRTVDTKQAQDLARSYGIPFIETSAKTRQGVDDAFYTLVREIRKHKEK

Chain of KRas G12D (P01116 1-169 isoform P01116-2 G12D): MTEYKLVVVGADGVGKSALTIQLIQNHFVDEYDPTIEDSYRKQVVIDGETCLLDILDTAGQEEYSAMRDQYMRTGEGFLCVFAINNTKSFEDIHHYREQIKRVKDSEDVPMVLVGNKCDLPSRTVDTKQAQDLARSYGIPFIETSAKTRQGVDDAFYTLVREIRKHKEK
Chain of KRas G13D (P01116 1-169 isoform P01116-2 G13D): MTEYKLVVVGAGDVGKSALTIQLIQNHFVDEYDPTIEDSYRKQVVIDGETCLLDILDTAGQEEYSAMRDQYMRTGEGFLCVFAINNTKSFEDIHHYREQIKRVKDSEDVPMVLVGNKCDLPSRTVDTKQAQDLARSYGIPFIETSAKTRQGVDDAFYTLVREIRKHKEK
Chain of KRas G12A (P01116 1-169 isoform P01116-2 G12A): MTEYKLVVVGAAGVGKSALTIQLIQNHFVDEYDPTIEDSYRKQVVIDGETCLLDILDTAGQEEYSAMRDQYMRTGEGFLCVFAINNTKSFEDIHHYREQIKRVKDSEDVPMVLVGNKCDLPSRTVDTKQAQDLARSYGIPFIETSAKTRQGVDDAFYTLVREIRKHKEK
Chain of KRas WT (P01116 1-169 isoform P01116-2): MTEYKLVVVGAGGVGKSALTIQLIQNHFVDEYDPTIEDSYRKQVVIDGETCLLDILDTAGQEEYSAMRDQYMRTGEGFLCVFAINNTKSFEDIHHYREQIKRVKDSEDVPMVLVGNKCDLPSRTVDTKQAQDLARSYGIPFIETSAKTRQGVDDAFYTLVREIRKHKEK
Chain of KRas G12R (P01116 1-169 isoform P01116-2 G12R): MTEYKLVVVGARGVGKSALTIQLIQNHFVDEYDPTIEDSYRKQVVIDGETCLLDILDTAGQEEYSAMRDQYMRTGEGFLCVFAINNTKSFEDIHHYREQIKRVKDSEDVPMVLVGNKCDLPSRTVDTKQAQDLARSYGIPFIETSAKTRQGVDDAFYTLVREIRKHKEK
Chain of KRas Q61H (P01116 1-169 isoform P01116-2 Q61H): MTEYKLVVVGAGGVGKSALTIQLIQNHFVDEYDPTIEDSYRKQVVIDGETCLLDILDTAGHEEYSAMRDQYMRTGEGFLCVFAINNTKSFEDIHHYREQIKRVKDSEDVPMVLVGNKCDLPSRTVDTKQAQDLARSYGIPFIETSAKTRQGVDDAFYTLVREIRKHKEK
Chain of KRas G12C (P01116 1-169 isoform P01116-2 G12C): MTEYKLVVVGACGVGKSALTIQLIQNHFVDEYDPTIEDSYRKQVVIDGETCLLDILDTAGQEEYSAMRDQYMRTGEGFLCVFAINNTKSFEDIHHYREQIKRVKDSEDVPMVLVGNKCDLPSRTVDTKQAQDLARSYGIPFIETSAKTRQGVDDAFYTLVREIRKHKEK
Chain of KRas G12S (P01116 1-169 isoform P01116-2 G12S): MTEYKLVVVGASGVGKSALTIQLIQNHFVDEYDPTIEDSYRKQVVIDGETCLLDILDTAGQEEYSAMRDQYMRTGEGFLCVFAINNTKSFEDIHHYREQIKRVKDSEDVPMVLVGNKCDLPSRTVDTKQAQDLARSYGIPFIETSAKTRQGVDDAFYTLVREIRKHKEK

Regarding `CCc1c(F)ccc2cc(O)cc(N3CCc4c(nc(OC[C@@]56CCCN5C[C@H](F)C6)nc4N4CCCn5nc(C(=O)N6CCC7CC76)cc5C4)C3)c12` (stereo partly drawn) [Example 344, 2-azabicyclo[3.1.0]hexan-2-yl(5-(7-(8-ethyl-7-fluoro-3-hydroxynaphthalen-1-yl)-2-(((2R,7aS)-2-fluorohexahydro-1H-pyrrolizin-7a-yl)methoxy)-5,6,7,8-tetrahydropyrido[3,4-d]pyrimidin-4-yl)-5,6,7,8-tetrahydro-4H-pyrazolo[1,5-a][1,4]diazepin-2-yl)methanone], the inhibition at 0.01 µM in assay [1] is 97%; in assay [2] it was 97%; in assay [3] it was 99%; in assay [4], 99%; in assay [5], 96%; in assay [6] it was 97%. The IC50 in assay [7] worked out at 4.1 nM; in assay [8] it was 2030 nM; in assay [9] it was 2 nM; in assay [10] it was 3 nM; in [11], 7 nM; in assay [12], 24 nM. In addition, the IC50 is 55 nM in assay [13]; 2 nM in assay [14]; below 2 nM in assay [15]; below 2 nM in [16]; below 2 nM in assay [17]. The inhibition at 0.1 µM amounted to 85% in [11], 88% in [12], 57% in assay [13] and 97% in assay [14].
Turning to `CCc1c(F)ccc2cc(O)cc(N3CCc4c(nc(OC[C@@]56CCCN5C[C@H](F)C6)nc4N4CCCCn5nc(C(=O)N(C)C)cc5C4)C3)c12` [Example 349, 5-(7-(8-ethyl-7-fluoro-3-hydroxynaphthalen-1-yl)-2-(((2R,7aS)-2-fluorohexahydro-1H-pyrrolizin-7a-yl)methoxy)-5,6,7,8-tetrahydropyrido[3,4-d]pyrimidin-4-yl)-N,N-dimethyl-4,5,6,7,8,9-hexahydropyrazolo[1,5-a][1,4]diazocine-2-carboxamide], the inhibition at 0.01 µM came out at 96% in [1]; 96% in assay [2]; 99% in assay [3]; 99% in [4]; 96% in assay [5]; 98% in [6]. For the same compound, the IC50 in assay [7] worked out at 3.9 nM; in assay [8], 862 nM; in assay [9], 8 nM; in [10], 2 nM; in [11], 6 nM; in [12] it was 24 nM. Moreover, the IC50 is 74 nM in [13]; 2 nM in assay [14]; below 2 nM in assay [15]; below 2 nM in [16]; below 2 nM in assay [17]. Moreover, the inhibition at 0.1 µM in assay [9] was 96%; in assay [10], 86%; in [11] it was 75%; in [12], 84%; in assay [13], 47%; in [14], 101%.
`CCc1c(F)ccc2cc(O)cc(N3CCc4c(nc(OC[C@@]56CCCN5C[C@H](F)C6)nc4N4CCCn5nc(N)c(Cl)c5C4)C3)c12` [Example 358, 4-(4-(2-amino-3-chloro-7,8-dihydro-4H-pyrazolo[1,5-a][1,4]diazepin-5(6H)-yl)-2-(((2R,7aS)-2-fluorohexahydro-1H-pyrrolizin-7a-yl)methoxy)-5,6-dihydropyrido[3,4-d]pyrimidin-7(8H)-yl)-5-ethyl-6-fluoronaphthalen-2-ol]: the inhibition at 0.01 µM in assay [1] worked out at 94%; in [2] it was 93%; in [3] it was 99%; in assay [4] it was 99%; in assay [5], 94%; in assay [6], 95%. Besides, the IC50 amounted to 20.6 nM in assay [7]; 7400 nM in [8]; 4 nM in assay [9]; 16 nM in [10]; 10 nM in assay [11]; 25 nM in assay [12]. In addition, the IC50 was 111 nM in [13]; 4 nM in assay [14]; below 2 nM in assay [15]; below 2 nM in assay [16]; below 2 nM in [17]. Also, the inhibition at 0.1 µM in assay [9] was 95%; in [10], 72%; in assay [12] it was 90%; in [13], 50%.
Turning to `CCc1c(F)ccc2cc(O)cc(N3CCc4c(nc(OC[C@@]56CCCN5C[C@H](F)C6)nc4N4CCCCn5nc(C(=O)N6CCOCC6)cc5C4)C3)c12` [Example 360, (5-(7-(8-ethyl-7-fluoro-3-hydroxynaphthalen-1-yl)-2-(((2R,7aS)-2-fluorotetrahydro-1H-pyrrolizin-7a(5H)-yl)methoxy)-5,6,7,8-tetrahydropyrido[3,4-d]pyrimidin-4-yl)-4,5,6,7,8,9-hexahydropyrazolo[1,5-a][1,4]diazocin-2-yl)(morpholino)methanone], the inhibition at 0.01 µM in assay [1] stood at 97%; in assay [2], 98%; in assay [3], 100%; in assay [4], 99%; in assay [5], 97%; in assay [6] it was 97%. Besides, the 50% inhibitory concentration (IC50) in assay [7] amounted to 12 nM; in assay [8] it was 1370 nM; in assay [9], 9 nM; in assay [10] it was 4 nM; in assay [11], 9 nM; in assay [12] it was 20 nM. Besides, the IC50 was 67 nM in assay [13]; 2 nM in [14]; below 2 nM in assay [15]; below 2 nM in [16]; below 2 nM in [17]. Further, the inhibition at 0.1 µM stood at 87% in [12] and 49% in [13].
Regarding `CCNC(=O)c1nn2c(c1Cl)CN(c1nc(OC[C@@]34CCCN3C[C@H](F)C4)nc3c1CCN(c1cc(O)cc4ccc(F)c(CC)c14)C3)CCC2` [Example 367, 3-chloro-N-ethyl-5-(7-(8-ethyl-7-fluoro-3-hydroxynaphthalen-1-yl)-2-(((2R,7aS)-2-fluorohexahydro-1H-pyrrolizin-7a-yl)methoxy)-5,6,7,8-tetrahydropyrido[3,4-d]pyrimidin-4-yl)-5,6,7,8-tetrahydro-4H-pyrazolo[1,5-a][1,4]diazepine-2-carboxamide], the inhibition at 0.01 µM in [1] was 98%; in assay [2] it was 99%; in assay [3] it was 100%; in assay [4], 99%; in assay [5], 98%; in assay [6] it was 99%. Also, the 50% inhibitory concentration (IC50) in assay [7] was determined as 4.2 nM; in [8], 2100 nM; in assay [9], 2 nM; in assay [10], 3 nM; in [11], 5 nM; in assay [12], 24 nM. Moreover, the IC50 in assay [13] was 40 nM; in [14] it was 1 nM; in [15], below 2 nM; in assay [16] it was below 2 nM; in [17] it was below 2 nM. Moreover, the inhibition at 0.1 µM turned out to be 85% in assay [11], 83% in assay [12], 62% in assay [13] and 101% in assay [14].
